Assay results from patent US20040185566A1, “Polypeptides toxic to nematodes and methods of use” (priority 2003, published 2004).
Read-outs that look alike come from different tables or passages of the source.

What was measured:
SMP #1 = SMP #1 (Serratia marcescens, UniProt P23694, N428Q/P266L); assay type: biochemical, S. marcescens NRRL B-23112
R. similis = experiment: Assay for lytic activity against R. similis (microtiter plates); assay type: in vivo
Experimental: The assays were performed in microtiter plates. Ten microliters of R. similissuspensions were placed in microtiter plate wells. Serially diluted SMP #1 (100U in 0.1 ml stock) was added to the wells. PBS was added to a series of wells containing R. similis as a control. The nematodes were stored at 20° C. and examined for lytic effects or death at 48 and 96 hours.

A. suum = experiment: Assay for lytic activity against live A. suum; settings: A. suum

SMP #1, sequence (P23694 17-487 P266L/N428Q): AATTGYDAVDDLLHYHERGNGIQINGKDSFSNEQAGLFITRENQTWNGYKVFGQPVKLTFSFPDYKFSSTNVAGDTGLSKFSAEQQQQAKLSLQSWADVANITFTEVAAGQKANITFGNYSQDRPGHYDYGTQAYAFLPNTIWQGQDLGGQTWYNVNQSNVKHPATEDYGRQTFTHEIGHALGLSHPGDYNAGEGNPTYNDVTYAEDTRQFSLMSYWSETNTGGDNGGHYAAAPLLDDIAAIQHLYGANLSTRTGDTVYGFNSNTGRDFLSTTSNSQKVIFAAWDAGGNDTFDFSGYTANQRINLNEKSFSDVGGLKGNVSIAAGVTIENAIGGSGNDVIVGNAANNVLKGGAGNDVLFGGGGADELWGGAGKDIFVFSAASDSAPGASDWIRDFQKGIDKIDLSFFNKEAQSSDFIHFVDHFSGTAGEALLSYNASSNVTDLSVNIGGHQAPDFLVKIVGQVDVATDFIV

Molecule: CC(C)C[C@H](NC(=O)[C@H]1O[C@@H]1C(=O)O)C(=O)NCCCCN=C(N)N [E-64]
- inhibition of SMP #1 proteolytic activity (SMP #1; E-64 20 μg/ml): not inhibited

Molecule: serratiopeptidase [SMP #2, reference compound]
- Dead (nematodes counted) (R. similis; 10 U/well, 10 wells, 20° C.): 109
- Live (nematodes counted) (R. similis; 10 U/well, 10 wells, 20° C.): 175
- % mortality (R. similis; 10 U/well, 10 wells, 20° C., significant difference (p < 0.05) between treatments): 38%
- lysis / mortality of the nematode on contact (R. similis; R. similis): does not lyse or cause significant mortality
- lysis / mortality of the nematode on contact (A. suum): does not lyse or cause significant mortality

Molecule: aprotinin
- inhibition of SMP #1 proteolytic activity (SMP #1; aprotinin 4 μg/ml): not inhibited

Molecule: Cl.NCCc1ccc(S(=O)(=O)F)cc1 [Pefabloc SC]
- inhibition of SMP #1 proteolytic activity (SMP #1; Pefabloc SC 2000 μ/ml): not inhibited

Molecule: O=C(O)CN(CCN(CC(=O)O)CC(=O)O)CC(=O)O [EDTA]
- inhibition of SMP #1 proteolytic activity (SMP #1; EDTA 9μg/ml): inhibited
